Experimental findings from patent US20260176249A1, “PROTEIN KINASE INHIBITOR, PREPARATION METHOD THEREFOR, AND APPLICATION THEREOF” (SHANDONG LUYE PHARMACEUTICAL CO., LTD., priority 2021, published 2026) are described below.

For one data set, the system named is Caco-2 cells. Nature of the data set: Permeability and efflux transporter substrate evaluation in Caco-2 cells. Type of data set: in vitro ADME. On the set-up: Papp A→B at 120 min / Papp B→A at 120 min / efflux ratio at 120 min / Papp at 120 min: dose or concentration left out as unconfirmed. Conditions: Caco-2. In a few lines:
(§1)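 Bidirectional (A-B, B-A) transport across 21-28-day Caco-2 monolayers in HBSS/10 mM HEPES pH 7.40, test substance at […], 7200 s incubation. LC-MS/MS quantitation; Papp, efflux ratio and recovery calculated, monolayer integrity checked by Lucifer Yellow rejection.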
In general terms: Caco-2 cells form a polarised layer with tight junctions and transporters.

Assay in data set [1]: as above
Type of data set: in vitro ADME. Details: Papp A→B at 120 min / Papp B→A at 120 min / efflux ratio at 120 min / Papp at 120 min: dose or concentration left out as unconfirmed. Conditions: human; for efflux ratio at 120 min / Papp at 120 min: Caco-2, pH 7.4; for Papp at 120 min: read-out: Classification Permeability; for Papp A→B at 120 min / Papp B→A at 120 min: pH 7.4, pH 7.40; for Papp A→B at 120 min: Caco-2, apical to basolateral; for Papp B→A at 120 min: Caco-2, basolateral to apical. The procedure, abridged: as §1

Data set [2] has as its system HCT116 cells. As to the kind of experiment: In vivo pharmacodynamic study of compound 1 in HCT116 tumor-bearing mice. Details: species or system Balb/C Nude mice. Conditions: 20 mg/kg once a day by gavage, vs sham group. From the text:
Balb/C Nude mice, SPF grade, male, weighing 18-20 g, were purchased from Jiangsu Gempharmatech Co., Ltd.
HCT116 cells were purchased from ATCC.
Matrigel Matrix, Cat. No. 354248, was purchased from Becton, Dickinson and Company.
Kolliphor® HS 15, Cat. No. 42966, was purchased from Sigma-Aldrich.
(§2) a. Establishment of tumor-bearing mouse model: HCT116 cells in the logarithmic growth phase were taken and cultured, the cells were collected and counted, and then subcutaneously inoculated into Balb/C Nude mice at 1×10^6/mouse. The tumor volume and body weight of the mice were measured regularly. 7 days after inoculation, mice with tumor volume of 150 mm3 were randomly divided into groups and treated with corresponding drugs.
b. […] The administration was performed once a day by gavage for 21 consecutive days, and the tumor volume and body weight of the mice were measured regularly.
(§3) 3. Data processing: All data were organized in EXCEL, and One-way ANOVA analysis and drawing were performed using GraphPad Prism 8.0 software. Statistical significance was achieved when p<0.05.

In data set [3] the test system is HCT116 cells. As to the kind of experiment: In vivo pharmacodynamic study of compound 18 in HCT116 tumor-bearing mice. On the set-up: species or system Balb/C Nude mice. The note with it: 60 mg/kg once a day by gavage. As to the method:
as §2, §3
1. Experiment materials: Same as Test example 5.
a. Establishment of tumor-bearing mouse model: Same as Test example 5.
b. […] The administration was performed once a day by gavage for 7 consecutive days, and the tumor volume and body weight of the mice were measured regularly.
3. Data processing: Same as Test example 5.

Consider `CN1CCN(c2ccc(OC(F)(F)F)c(Nc3ncc4c(n3)-c3c(c(C(=O)NN)nn3CCO)CC4)c2)CC1` [Compound 13], for which the “Classification Efflux transporter substrate” value in the data set on Caco-2 cells is given as “Likely (ERa ≥ 2.00)”. Also, in data set [1], the efflux ratio at 120 min is above 28.6, the Papp at 120 min is below 0.5 ×10⁻⁶ cm/s, the Papp A→B at 120 min is below 0.48 ×10⁻⁶ cm/s and the Papp B→A at 120 min came out at 13.7 ×10⁻⁶ cm/s.
Taken in the same sequence, the figures for `Cn1nc(C(N)=O)c2ccc3cnc(Nc4cc(N5CCN(CCO)CC5)ccc4OC(F)(F)F)nc3c21` [Compound 16] were “Likely (ERa ≥ 2.00)”, 7.27, 0.5 to 2.5 ×10⁻⁶ cm/s, 0.917 ×10⁻⁶ cm/s and 6.66 ×10⁻⁶ cm/s.
Consider `CN1CCN(c2ccc(OC(F)(F)F)c(Nc3ncc4c(n3)-c3c(c(C(N)=O)nn3CCO)CC4)c2)CC1` [Onvansertib, reference compound], for which the tumor inhibition rate in the data set on HCT116 cells [2] (11 days) worked out at 54.9%; with HCT116 cells [2] (16 days), 39.6%; in the data set on HCT116 cells [2] (21 days), 37.0%; with HCT116 cells [3] (7 days, vs control group), 62.7%. Moreover, the “body weight decrease compared to before administration” value in the data set with HCT116 cells [3] (5 days) came out at 8.4%; in the data set on HCT116 cells [3] (7 days) it was 19.5%. Also, in the data set with Caco-2 cells, the “Classification Efflux transporter substrate” value was “Likely (ERa ≥ 2.00)”. Besides, in data set [1], the Papp at 120 min was below 0.5 ×10⁻⁶ cm/s. In addition, the Papp A→B at 120 min in data set [1] came out at 0.299 ×10⁻⁶ cm/s. For the same compound, the Papp B→A at 120 min in data set [1] came to 43.6 ×10⁻⁶ cm/s.
In the case of `CN1CCN(c2ccc(OC(F)(F)F)c(Nc3ncc4c(n3)-c3c(c(C(N)=O)nn3CCC#N)CC4)c2)CC1` [Compound 4], the “Classification Efflux transporter substrate” value with Caco-2 cells is given as “Likely (ERa ≥ 2.00)”. In addition, in data set [1], the efflux ratio at 120 min was 22.1, the Papp at 120 min lay in the range of 0.5 to 2.5 ×10⁻⁶ cm/s, the apparent permeability from apical to basolateral (Papp A→B) at 120 min amounted to 1.16 ×10⁻⁶ cm/s and the Papp B→A at 120 min is 25.5 ×10⁻⁶ cm/s.
For `Cn1nc(C(N)=O)c2c1-c1nc(Nc3cc(N4CCN(CCO)CC4)ccc3OC(F)(F)F)ncc1CC2` [Compound 20], in that order: “Likely (ERa ≥ 2.00)”, 10.4, 0.5 to 2.5 ×10⁻⁶ cm/s, 1.3 ×10⁻⁶ cm/s and 13.4 ×10⁻⁶ cm/s.
For `CN1CCN(c2ccc(OC(F)(F)F)c(Nc3ncc4c(n3)-c3c(c(C(N)=O)cn3CCO)CC4)c2)CC1` [Compound 2], in that order: “Likely (ERa ≥ 2.00)”, above 54.4, below 0.5 ×10⁻⁶ cm/s, below 0.48 ×10⁻⁶ cm/s and 26.1 ×10⁻⁶ cm/s.
Taken in the same sequence, the figures for `CN1CCN(c2ccc(OCC(F)(F)F)c(Nc3ncc4c(n3)-c3c(c(C(N)=O)nn3CCO)CC4)c2)CC1` [Compound 24] were “Likely (ERa ≥ 2.00)”, 279, below 0.5 ×10⁻⁶ cm/s, 0.106 ×10⁻⁶ cm/s and 29.5 ×10⁻⁶ cm/s.

For orientation: efflux ratio means the permeability from basolateral to apical divided by that in the opposite direction, in the common usage. Usually Papp A→B stands for how fast a substance crosses the layer from the apical side. By Papp B→A is commonly meant the apparent permeability from the basolateral to the apical side of a cell layer.
